What was measured:
cytopathic BVDV = details: higher NB-DNJ concentrations in combination with IFN; cited from earlier work
ncp BVDV strain Pe515 = assay: Real time RT-PCR of secreted viral RNA in supernatants of persistently infected MDBK cells (Example 3); format: cell-based, bovine viral diarrhea virus; details: iminosugar added to IFN/RBV from the beginning of treatment
Procedure: Madin-Darby bovine kidney cells (MDBK) MDBK cells were seeded at 1×10^6 cells/35 mm dish, infected with non-cytopathic (ncp) BVDV strain Pe515 (National Animal Disease Laboratory) at a MOI of 0.1, and passaged into fresh RPMI 1640 medium containing 10% (v/v) Foetal calf serum using a 1:8 dilution every three days. After achieving a stable infection IFN (1000 IU) and RBV (1 μM) (Sigma-Aldrich) were added to the cells; this passage was denoted passage 0 (P0). Simultaneously, a non-drug treated positive control sample and mock-infected (M.I.) negative controls cultured in the presence and absence of IFN and RBV (1000 IU and 1 μM, respectively) were prepared. Cells continued to be passaged every 3 days into fresh medium containing IFN and RBV. […] At each passage the combined supernatants of cultured cells from duplicate wells were harvested (to account for biological variation), levels of secreted viral RNA measured (by real time RT-PCR using technical duplicates) and the infectivity of the supernatant determined using an immunofluorescence (IF) based infectivity assay.
At each passage, a 500 μl aliquot of each supernatant harvested from the cultured cells was concentrated by ultrafiltration (10 kDa molecular weight cut off Centricon filter; Millipore, Mass., USA) to 140 μl. […] Real time RT-PCR was carried out using the Qiagen Quantitect RT-PCR kit. […]

CCCCN1C[C@H](O)[C@@H](O)[C@H](O)[C@H]1CO [NB-DNJ, N-butyl deoxynojirimycin]
antiviral effect of the combination (cytopathic BVDV): greater than additive antiviral effect | additional effect on decrease of viral RNA levels (synergy) (ncp BVDV strain Pe515): no synergy was observed

— patent US20130195798A1, “COMBINATION THERAPY FOR TREATMENT OF VIRAL INFECTIONS” (The Chancellors, Masters and Scholars of the University of …, priority 2006, published 2013)
